Data as given in US12508280B2, “Formulations for improving gut health” (DSM IP ASSETS B.V., priority 2018, dated 2025).

Experiments:
Format in all cases: cell-based, human
[1] = tested on: fecal inoculum of two healthy adults; experiment: Short-term colonic incubations, SCFA production (second set); details: 48 h fermentation
Protocol: In a second set of in vitro experiments, at the start of the short-term colonic incubations, the test ingredients were added to nutritional medium containing basal nutrients present in the colon (e.g. host-derived glycans such as mucin). Three doses were tested per product. The nutritional medium used for this particular project was again supplemented with NaCl, MgSO4, CaCl2, hemin and bile salts, and with carbon sources glucose, starch and cellobiose. A blank, containing the same nutritional medium as that used for the product incubations, but without product addition, was included for each donor. In doing so, an assessment can be made of the background activity of the bacterial community, which results from fermentation of compounds in the nutritional medium. As a source of the colonic microbiota a fecal inoculum of two healthy adults was added. Incubations were performed for 48 h at 37'C, under shaking (90 rpm) and anaerobic conditions and protected from light. […] Each compound was tested in three different concentrations; an overview is given in Table 2, below: Short chain fatty acids (SCFA) are an assessment of the microbial carbohydrate metabolism (acetate, propionate and butyrate) or protein metabolism (branched SCFA) and can be compared to typical fermentation patterns for normal GI microbiota. Samples for SCFA analysis were analyzed after 0, 6, 24 and 48 h of incubation for both set of in vitro experiments, above. SCFA were extracted from the samples with diethyl ether, after the addition of 2-methyl hexanoic acid as an internal standard. […], Belgium), a flame ionization detector and a split injector. The injection volume was […] and the temperature profile was set from 110 to 160° C., with a temperature increase of 6° C. min-1. […] The production of unbranched and branched SCFA was calculated by summing the molar concentrations of acetate, propionate, butyrate, valerate and caproate, and summing isobutyrate, isovalerate and isocaproate molar concentrations, respectively. The total SCFA production was defined as the sum of unbranched and branched SCFA.

[2] = tested on: colonic microbiota (fecal inoculum of two healthy adults); experiment: Microbiome diversity, alpha and beta (second set)
Protocol: (§1) In a second set of in vitro experiments, at the start of the short-term colonic incubations, the test ingredients were added to nutritional medium containing basal nutrients present in the colon (e.g. host-derived glycans such as mucin). Three doses were tested per product. The nutritional medium used for this particular project was again supplemented with NaCl, MgSO4, CaCl2, hemin and bile salts, and with carbon sources glucose, starch and cellobiose. A blank, containing the same nutritional medium as that used for the product incubations, but without product addition, was included for each donor. In doing so, an assessment can be made of the background activity of the bacterial community, which results from fermentation of compounds in the nutritional medium. As a source of the colonic microbiota a fecal inoculum of two healthy adults was added. Incubations were performed for 48 h at 37′C, under shaking (90 rpm) and anaerobic conditions and protected from light. […] For the second set of in vitro experiments, two techniques were combined according to Vandeputte et al.

[3] = tested on: colonic microbiota (fecal inoculum of two healthy adults); experiment: 16S-targeted Illumina sequencing with flow cytometry, taxa abundance (second set); details: 24 h fermentation
Protocol: as §1

**Q.** Which results are given for Calcium D-Pantothenate [vitamin B5]?
**A.** propionate production ([1]; 0.2× dose, donor C): increase propionate production; branched SCFA production ([1]; 5× dose, both donors): decrease branched SCFA production; alpha-diversity (Shannon diversity index) ([2]; 0.2× dose, donor D): increases alpha-diversity; beta-diversity (Bray-Curtis distance to control) ([2]; 5× dose, both donors): increases beta-diversity; alpha-diversity (Shannon diversity index) ([2]; 5× dose, donor D): increases alpha-diversity; Akkermansiaceae relative abundance ([3]; 0.2× dose, donor D): increase Akkermansiaceae relative abundance; Faecalibacterium prausnitzii relative abundance ([3]; 0.2× dose, donor D): increase Faecalibacterium prausnitzii relative abundance; Veillonellaceae relative abundance ([3]; 0.2× dose, donor D): increase Veillonellaceae relative abundance; Erysipelotrichaceae relative abundance ([3]; 1× dose, donor D): increase Erysipelotrichaceae relative abundance; Faecalibacterium prausnitzii relative abundance ([3]; 1× dose, donor D): increase Faecalibacterium prausnitzii relative abundance; Bifidobacteriaceae relative abundance ([3]; 5× dose, both donors): increase Bifidobacteriaceae relative abundance; Desulfovibrionaceae relative abundance ([3]; 5× dose, donor C): decrease Desulfovibrionaceae relative abundance; Faecalibacterium prausnitzii relative abundance ([3]; 5× dose, donor D): increase Faecalibacterium prausnitzii relative abundance

**Q.** CC1=C(/C=C/C(C)=C/C=C/C(C)=C/C=C/C=C(C)/C=C/C=C(C)/C=C/C2=C(C)CCCC2(C)C)C(C)(C)CCC1 [β-carotene] was tested. Which butyrate production ([1]; 0.2× dose, donor C) did it give?
**A.** The butyrate production was “increase butyrate production”.

**Q.** And the acetate production ([1]; 1× dose, both donors)?
**A.** Its acetate production is “increase acetate production”.

**Q.** What about the butyrate production ([1]; 1× dose, both donors) of the same compound?
**A.** The butyrate production was “increase butyrate production”.

**Q.** And the “total SCFA production” value ([1]; 1× dose, both donors)?
**A.** Its value is “increase total SCFA production”.

**Q.** And the propionate production ([1]; 1× dose, donor C)?
**A.** The propionate production was “increase propionate production”.

**Q.** And the acetate production ([1]; 5× dose, both donors)?
**A.** The acetate production was “increase acetate production”.

**Q.** What about the “total SCFA production” value ([1]; 5× dose, both donors) of the same compound?
**A.** The value was “increase total SCFA production”.

**Q.** And the propionate production ([1]; 5× dose, donor C)?
**A.** The propionate production was “increase propionate production”.

**Q.** And the “beta-diversity (Bray-Curtis distance to control)” value (from here on “beta-diversity”) ([2]; 0.2× dose, donor D)?
**A.** Its value is “increases beta-diversity”.

**Q.** And the “beta-diversity” value ([2]; 1× dose, both donors)?
**A.** The value was “increases beta-diversity”.

**Q.** What about the “beta-diversity” value ([2]; 1× dose, donor D) of the same compound?
**A.** Its value is “increases beta-diversity”.

**Q.** And the “beta-diversity” value ([2]; 5× dose, both donors)?
**A.** Its value is “increases beta-diversity”.

**Q.** What about the Bifidobacteriaceae relative abundance ([3]; 1× dose, both donors) of the same compound?
**A.** The Bifidobacteriaceae relative abundance was “increase Bifidobacteriaceae relative abundance”.

**Q.** And the Clostridiaceae relative abundance ([3]; 1× dose, donor C)?
**A.** The Clostridiaceae relative abundance was “increase Clostridiaceae relative abundance”.

**Q.** What about the Prevotellaceae relative abundance ([3]; 1× dose, donor C) of the same compound?
**A.** The Prevotellaceae relative abundance was “increase Prevotellaceae relative abundance”.

**Q.** What about the Coriobacteriaceae relative abundance ([3]; 1× dose, donor D) of the same compound?
**A.** Its Coriobacteriaceae relative abundance is “increase Coriobacteriaceae relative abundance”.

**Q.** And the “Faecalibacterium prausnitzii relative abundance” value ([3]; 1× dose, donor D)?
**A.** Its value is “increase Faecalibacterium prausnitzii relative abundance”.

**Q.** What about the Veillonellaceae relative abundance ([3]; 1× dose, donor D) of the same compound?
**A.** The Veillonellaceae relative abundance was “increase Veillonellaceae relative abundance”.

**Q.** And the Akkermansiaceae relative abundance ([3]; 5× dose, both donors)?
**A.** The Akkermansiaceae relative abundance was “increase Akkermansiaceae relative abundance”.

**Q.** What about the Bifidobacteriaceae relative abundance ([3]; 5× dose, both donors) of the same compound?
**A.** The Bifidobacteriaceae relative abundance was “increase Bifidobacteriaceae relative abundance”.

**Q.** What about the Desulfovibrionaceae relative abundance ([3]; 5× dose, both donors) of the same compound?
**A.** Its Desulfovibrionaceae relative abundance is “decrease Desulfovibrionaceae relative abundance”.

**Q.** And the Eggerthellaceae relative abundance ([3]; 5× dose, both donors)?
**A.** The Eggerthellaceae relative abundance was “increase Eggerthellaceae relative abundance”.

**Q.** What about the Barnesiellaceae relative abundance ([3]; 5× dose, donor D) of the same compound?
**A.** Its Barnesiellaceae relative abundance is “increase Barnesiellaceae relative abundance”.

**Q.** And the Coriobacteriaceae relative abundance ([3]; 5× dose, donor D)?
**A.** The Coriobacteriaceae relative abundance was “increase Coriobacteriaceae relative abundance”.

**Q.** What about the “Faecalibacterium prausnitzii relative abundance” value ([3]; 5× dose, donor D) of the same compound?
**A.** Its value is “increase Faecalibacterium prausnitzii relative abundance”.

**Q.** And the Veillonellaceae relative abundance ([3]; 5× dose, donor D)?
**A.** The Veillonellaceae relative abundance was “increase Veillonellaceae relative abundance”.
